Data on 17 compounds can be found in ChEMBL document CHEMBL4414676, “Quinazoline-Containing Indole Alkaloids from the Marine-Derived Fungus Aspergillus sp. HNMF114” (J Nat Prod, 2019).

Structures are written as SMILES. Calls of active or inactive are those of the source. No cut-off for these calls is given here.

One test has as its system SGC-7901. Nature of the test: Antiproliferative activity against human SGC7901 cells after 24 to 72 hrs by MTT assay. Type of test: functional, cell-based. (In general: Tetrazolium dyes change colour on reduction, which living cells bring about.)
The next test concerns HeLa. Nature of the test: Antiproliferative activity against human HeLa cells after 24 to 72 hrs by MTT assay. In kind it is functional, cell-based.
The next test deals with K562. Nature of the test: Antiproliferative activity against human K562 cells after 24 to 72 hrs by MTT assay. Type of test: functional, cell-based.
In a further test the test system is Streptococcus agalactiae. Nature of the test: Antibacterial activity against Streptococcus agalactiae after 24 hrs by two fold dilution assay. Type of test: functional, organism-based.
The subject of the next test is A549. Nature of the test: Antiproliferative activity against human A549 cells after 24 to 72 hrs by MTT assay. In kind it is functional, cell-based.
Another test concerns Bacillus subtilis. Nature of the test: Antibacterial activity against Bacillus subtilis after 24 hrs by two fold dilution assay. In kind it is functional, organism-based.
A short description of test [1]: Inhibition of quorum sensing in C6-HSL-induced Chromobacterium violaceum CV026 assessed as […] by measuring minimum inhibitory dose per well after 18 hrs by well diffusion method. (A growth-free zone around the sample is the usual read-out of agar diffusion tests.)
The next test concerns Staphylococcus aureus. Nature of the test: Antibacterial activity against Staphylococcus aureus after 24 hrs by two fold dilution assay. In kind it is functional, organism-based.
The subject of a further test is Escherichia coli. Nature of the test: Antibacterial activity against Escherichia coli after 24 hrs by two fold dilution assay. In kind it is functional, organism-based.

As for `CC(=O)OC(c1nc2ccccc2c(=O)n1[C@H]1C[C@@]2(OC1=O)C(=O)Nc1ccccc12)C(C)C` (some centres not stated), the outcome with SGC-7901, with HeLa, in the test on K562, with Streptococcus agalactiae, in the test with A549 and in the test with Bacillus subtilis was inactive. Besides, the result in the test with Staphylococcus aureus and in the test on Escherichia coli was inactive. Moreover, the MIC in test [1] was found to be 32 µg.

`CC(=O)O[C@H](c1nc2ccccc2c(=O)n1[C@@H]1C[C@]2(OC1=O)c1ccccc1N1C(=O)C(C)(C)N(O)[C@H]12)C(C)C`: the outcome in the test on SGC-7901, in the test with HeLa, in the test with K562, in the test on Streptococcus agalactiae, in the test with A549 and in the test with Bacillus subtilis was inactive. For the same compound, the outcome with Staphylococcus aureus and in the test on Escherichia coli was inactive.

Turning to `CC(C)=C1NC(=O)[C@@H](C[C@@]2(O)C(=O)Nc3ccccc32)n2c1nc1ccccc1c2=O`, the outcome with SGC-7901, in the test with HeLa, with K562, with Streptococcus agalactiae, in the test with A549 and with Bacillus subtilis was inactive. For the same compound, the result in the test on Staphylococcus aureus and in the test on Escherichia coli was inactive. Also, in [1], the MIC came to 16 µg.

As to `CC1(C)C(=O)N2c3ccccc3[C@@]3(C[C@H]4n5c(nc6ccccc6c5=O)C(=O)C(C)(C)[C@@]4(O)O3)[C@@H]2N1O`, the result with SGC-7901, in the test on HeLa, with K562, with Streptococcus agalactiae, with A549 and in the test on Bacillus subtilis was inactive. Besides, the result in the test with Staphylococcus aureus and in the test on Escherichia coli was inactive.

Regarding `CC(C)[C@@]1(O)NC(=O)[C@@H](C[C@]2(O)c3ccccc3N3C(=O)C(C)(C)N(O)[C@H]32)n2c1nc1ccccc1c2=O`, the outcome in the test with SGC-7901, in the test with HeLa, in the test with K562, with Streptococcus agalactiae, in the test on A549 and with Bacillus subtilis was inactive. The result in the test with Staphylococcus aureus and in the test with Escherichia coli was inactive.

With `CC(C)[C@H](O)c1nc2ccccc2c(=O)n1[C@H]1C[C@]2(OC1=O)c1ccccc1N1C(=O)C(C)(C)N(O)[C@H]12`, the outcome with SGC-7901, in the test on HeLa, with K562, in the test on Streptococcus agalactiae, in the test with A549 and in the test on Bacillus subtilis was inactive. Also, the result in the test on Staphylococcus aureus and with Escherichia coli was inactive.

With `CC1(C)C(=O)N2c3ccccc3[C@@]3(C[C@H](n4cnc5ccccc5c4=O)C(=O)O3)[C@@H]2N1O`, the outcome in the test with SGC-7901, with HeLa, with K562, with Streptococcus agalactiae, in the test with A549 and in the test on Bacillus subtilis was inactive. Also, the result in the test on Staphylococcus aureus and in the test on Escherichia coli was inactive.

Take `CC(=O)O[C@H](c1nc2ccccc2c(=O)n1[C@@H]1C[C@]2(OC1=O)c1ccccc1N1C(=O)C(C)(C)N[C@H]12)C(C)C`: the outcome in the test with SGC-7901, in the test on HeLa, with K562, in the test with Streptococcus agalactiae, with A549 and with Bacillus subtilis was inactive. The outcome with Staphylococcus aureus and in the test on Escherichia coli was inactive.

With `O=C1C=C(Br)/C(=C/Br)O1`, the MIC in [1] was 1 µg.

`CC(C)[C@H](O)c1nc2ccccc2c(=O)n1[C@H]1C[C@]2(OC1=O)c1ccccc1N1C(=O)C(C)(C)N(S(C)(=O)=O)[C@H]12`: the outcome in the test with SGC-7901, with HeLa, in the test with K562, in the test on Streptococcus agalactiae, in the test with A549 and in the test on Bacillus subtilis was inactive. Besides, the result in the test on Staphylococcus aureus and in the test with Escherichia coli was inactive.

As for `CC(=O)OC(c1nc2ccccc2c(=O)n1[C@@H]1C[C@]2(OC1=O)C(=O)Nc1ccccc12)C(C)C` (some centres not stated), the result in the test with SGC-7901, in the test on HeLa, in the test with K562, with Streptococcus agalactiae, in the test on A549 and with Bacillus subtilis was inactive. Further, the outcome in the test on Staphylococcus aureus and with Escherichia coli was inactive. Besides, the MIC in test [1] stood at 32 µg.

Turning to `O=C1N[C@H]2c3nc4ccccc4c(=O)n3[C@@H]1C[C@@]21c2ccccc2N2C(=O)[C@@H]3CCCN3[C@H]21`, the result with SGC-7901, in the test on HeLa, in the test on K562, with Streptococcus agalactiae, in the test on A549 and with Bacillus subtilis was inactive. Further, the result with Staphylococcus aureus and in the test with Escherichia coli was inactive.

With `CC(C)[C@@H]1NC(=O)[C@@H](C[C@]2(O)c3ccccc3N3C(=O)C(C)(C)N[C@H]32)n2c1nc1ccccc1c2=O`, the result in the test with SGC-7901, in the test on HeLa, with K562, with Streptococcus agalactiae, in the test on A549 and in the test with Bacillus subtilis was inactive. Further, the result with Staphylococcus aureus and in the test with Escherichia coli was inactive.

With `CC(=O)O[C@@H](c1nc2ccccc2c(=O)n1[C@H]1C[C@]2(OC1=O)c1ccccc1N1C(=O)C(C)(C)N[C@H]12)C(C)C`, the outcome with SGC-7901, in the test with HeLa, with K562, with Streptococcus agalactiae, with A549 and with Bacillus subtilis was inactive. The outcome in the test on Staphylococcus aureus and with Escherichia coli was inactive.

Turning to `CC(C)[C@@H](O)c1nc2ccccc2c(=O)n1[C@H]1C[C@]2(OC1=O)c1ccccc1N1C(=O)C(C)(C)N(O)[C@H]12`, the result with SGC-7901, in the test on HeLa, in the test on K562, with Streptococcus agalactiae, in the test on A549 and in the test with Bacillus subtilis was inactive. Besides, the outcome in the test with Staphylococcus aureus and in the test on Escherichia coli was inactive.

In the case of `CCC(=O)O[C@H](c1nc2ccccc2c(=O)n1[C@@H]1C[C@]2(OC1=O)c1ccccc1N1C(=O)C(C)(C)N(O)[C@H]12)C(C)C`, the result with SGC-7901, in the test with HeLa, in the test with K562, in the test with Streptococcus agalactiae, in the test on A549 and with Bacillus subtilis was inactive. For the same compound, the outcome with Staphylococcus aureus and in the test with Escherichia coli was inactive.

Consider `O=C1N[C@@H]2c3nc4ccccc4c(=O)n3[C@@H]1C[C@@]21C(=O)Nc2ccccc21`, for which the outcome in the test with SGC-7901, with HeLa, with K562, in the test on Streptococcus agalactiae, with A549 and with Bacillus subtilis was inactive. In addition, the outcome with Staphylococcus aureus and in the test with Escherichia coli was inactive.
